Source: patent US8901315B2, “Thienopyrazole derivative having PDE7 inhibitory activity” (Daiichi Sankyo Company, Limited, priority 2004, dated 2014)
Structures can show the parent of a compound that is named as a salt.

Experiments:
[1] = molecular target: PDE 7 (phosphodiesterase VII) (Homo sapiens (Human), UniProt Q13946); experiment: PDE 7 inhibiting effect (3H-cAMP hydrolysis, PDE 7 active fraction from MOLT-4 cells); format: biochemical; settings: PDE 7 fraction from MOLT-4 cells, 0.064 μM cAMP, 10 μM rolipram, 2 hours at 25° C.; read-out: PDE7 IC50
Chain of PDE 7 (phosphodiesterase VII) (Q13946 whole entry): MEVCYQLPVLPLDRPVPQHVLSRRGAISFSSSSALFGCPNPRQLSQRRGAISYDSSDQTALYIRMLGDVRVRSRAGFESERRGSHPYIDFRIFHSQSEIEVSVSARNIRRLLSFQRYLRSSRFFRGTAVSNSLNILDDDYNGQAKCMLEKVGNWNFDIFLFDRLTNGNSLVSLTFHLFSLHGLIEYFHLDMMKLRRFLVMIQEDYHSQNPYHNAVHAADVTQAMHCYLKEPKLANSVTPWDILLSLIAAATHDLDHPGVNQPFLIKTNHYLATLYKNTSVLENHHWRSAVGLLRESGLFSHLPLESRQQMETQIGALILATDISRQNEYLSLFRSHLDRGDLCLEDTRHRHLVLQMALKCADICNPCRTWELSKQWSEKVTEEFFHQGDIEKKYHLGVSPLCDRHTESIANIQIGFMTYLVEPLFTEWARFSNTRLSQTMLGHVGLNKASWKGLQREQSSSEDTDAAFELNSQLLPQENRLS
Summary of the method: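 ³H-cAMP hydrolysis by a PDE7-active fraction was followed, and the reaction was worked up with a Sephadex-QAE suspension (10 mM HEPES-Na, pH 7.0). Enzyme came from MOLT-4 cell soluble extract (pH 7.5 Tris buffer, 100,000×G supernatant), fractionated by HiTrap Q anion exchange with a 0–0.8 M NaCl gradient.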

[2] = molecular target: PDE 4 (phosphodiesterase IV); experiment: PDE 4 inhibiting effect (3H-cAMP hydrolysis, PDE 4 active fraction from Balb/c mouse liver); format: biochemical; settings: PDE 4 fraction from Balb/c mice liver, 0.064 μM cAMP, 2 hours at 25° C.; read-out: PDE4 IC50
Summary of the method: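 Activity was measured as 3H-cAMP hydrolysis, with Sephadex-QAE added after the reaction. The enzyme was a PDE4-active fraction from 12-week male Balb/c mouse liver, taken from the ultracentrifuged soluble fraction by DEAE sepharose chromatography (0.05-1 M sodium acetate gradient, pH 6.5 buffer).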

Row | Structure (SMILES) | IC50 [1] | IC50 [2]
1 | Cc1nn(C2CCCCC2)c2sc(C(=O)Nc3ccc(CN4CCC(O)CC4)nc3)cc12 [Example 413, 1-Cyclohexyl-N-{6-[(4-hydroxy-1-piperidinyl)methyl]-3-pyridinyl}-3-methyl-1H-thieno[2,3-c]pyrazole-5-carboxamide] | 30 nM | 2500 nM
2 | CNC(=O)c1ccc(NC(=O)c2cc3c(C)nn(C4CCCCC4)c3s2)cc1 [Example 20] | 33 nM | > 30000 nM
3 | Cc1nn(C2CCCCC2)c2sc(C(=O)Nc3ccc(C(=O)NCCO)cc3)cc12 [Example 46, 1-Cyclohexyl-N-(4-{[(2-hydroxyethyl)amino]carbonyl}phenyl)-3-methyl-1H-thieno[2,3-c]pyrazole-5-carboxamide] | 30 nM | 2000 nM
4 | Cc1nn(C2CCCCC2)c2sc(C(=O)Nc3ccc4c(c3)CCN4)cc12 [Example 14, 1-Cyclohexyl-N-(2,3-dihydro-1H-indol-5-yl)-3-methyl-1H-thieno[2,3-c]pyrazole-5-carboxamide HCl salt] | 88 nM | 3700 nM
5 | Cc1nn(C2CCOCC2)c2sc(C(=O)Nc3ccc(N4CCN(C)CC4)c(F)c3)cc12 [Example 197, N-[3-Fluoro-4-(4-methyl-piperazinyl)phenyl]-3-methyl-1-tetrahydro-2H-pyran-4-yl-1H-thieno[2,3-c]pyrazole-5-carboxamide] | 79 nM | 4400 nM
6 | Cc1nn(C2CCOCC2)c2sc(C(=O)N[C@H]3CC[C@H](N4CCN(C)C(=O)C4)CC3)cc12 [Example 419, 3-Methyl-N-[trans-4-(4-methyl-3-oxo-1-piperazinyl)cyclohexyl]-1-tetrahydro-2H-pyran-4-yl-1H-thieno[2,3-c]pyrazole-5-carboxamide] | 29 nM | 5700 nM
7 | Cc1nn(C2CCCCC2)c2sc(C(=O)N[C@H]3CC[C@H](CN4C(=O)CNC4=O)CC3)cc12 [Example 247, 1-Cyclohexyl-N-{4-[(2,5-dioxo-1-imidazolidinyl)methyl]cyclohexyl}-3-methyl-1H-thieno[2,3-c]pyrazole-5-carboxamide] | 6.5 nM | 1400 nM
8 | CCN1CCN([C@H]2CC[C@H](NC(=O)c3cc4c(C)nn(C5CCOCC5)c4s3)CC2)CC1=O [Example 436, N-[trans-4-(4-Ethyl-3-oxo-1-piperazinyl)cyclohexyl]-3-methyl-1-tetrahydro-2H-pyran-4-yl-1H-thieno[2,3-c]pyrazole-5-carboxamide] | 30 nM | 7200 nM
9 | Cc1nn(C2CCCCC2)c2sc(C(=O)Nc3ccc4c(c3)CCN4C(=O)C3CC3)cc12 [Example 58, 1-Cyclohexyl-N-[1-(cyclopropylcarbonyl)-2,3-dihydro-1H-indol-5-yl]-3-methyl-1H-thieno[2,3-c]pyrazole-5-carboxamide] | 36 nM | 3600 nM
10 | CC(=O)N1CCCN([C@H]2CC[C@H](NC(=O)c3cc4c(C)nn(C5CCCCC5)c4s3)CC2)CC1 [Example 171, N-[trans-4-(4-Acetyl-1,4-diazepam-1-yl)cyclohexyl]-1-cyclohexyl-3-methyl-1H-thieno[2,3-c]pyrazole-5-carboxamide] | 37 nM | 1700 nM
11 | Cc1nn(C2CCCCC2)c2sc(C(=O)N[C@H]3CC[C@H](N4CCCNCC4)CC3)cc12 [Example 170, 1-Cyclohexyl-N-[trans-4-(1,4-diazepam-1-yl)cyclohexyl]-3-methyl-1H-thieno[2,3-c]pyrazole-5-carboxamide] | 22 nM | 1300 nM
12 | Cc1nn(C2CCCCC2)c2sc(C(=O)N[C@H]3C[C@@H]3CO)cc12 (racemic) [Example 340, (±)-1-Cyclohexyl-N-[trans-2-(hydroxymethyl)cyclopropyl]-3-methyl-1H-thieno[2,3-c]pyrazole-5-carboxamide] | 54 nM | 28000 nM
13 | Cc1nn(C2CCCCC2)c2sc(C(=O)N[C@H]3CC[C@H](N4CCCN(C)CC4)CC3)cc12 [Example 167, 1-Cyclohexyl-3-methyl-N-[trans-4-(4-methyl-1,4-diazepam-1-yl)-cyclohexyl]-1H-thieno[2,3-c]pyrazole-5-carboxamide] | 15 nM | 1000 nM
14 | Cc1nn(C2CCCCC2)c2sc(C(=O)N[C@H]3CC[C@H](C(=O)O)CC3)cc12 [Example 205, 4-{[(1-Cyclohexyl-3-methyl-1H-thieno[2,3-c]pyrazol-5-yl)carbonyl]-amino}cyclohexane carboxylic acid] | 91 nM | 14000 nM
15 | Cc1nn(C2CCCCC2)c2sc(C(=O)Nc3ccc(C(=O)NC(C)C)cc3)cc12 [Example 45, 1-Cyclohexyl-N-{4-[(isopropylamino)carbonyl]phenyl}-3-methyl-1H-thieno[2,3-c]pyrazole-5-carboxamide] | 50 nM | 12000 nM
16 | Cc1nn(C2CCCCC2)c2sc(C(=O)N[C@H](C)CN3C(=O)CNC3=O)cc12 [Example 325, 1-Cyclohexyl-N-[(1R)-2-(2,5-dioxo-1-imidazolidinyl)-1-methylethyl]-3-methyl-1H-thieno[2,3-c]pyrazole-5-carboxamide] | 34 nM | 4000 nM

Row | Structure (SMILES) | IC50 [1] | IC50 [2]
17 | CC(=O)N1CCN([C@H]2CC[C@H](NC(=O)c3cc4c(C)nn(C5CCCCC5)c4s3)CC2)CC1 [Example 190, N-[trans-4-(4-Acetyl-1-piperazinyl)cyclohexyl]-1-cyclohexyl-3-methyl-1H-thieno[2,3-c]pyrazole-5-carboxamide] | 3.5 nM | 1700 nM
18 | Cc1cc(NC(=O)c2cc3c(C)nn(C4CCCCC4)c3s2)ccc1N1CCC(O)CC1 [Example 372] | 11 nM | 4000 nM
19 | Cc1nn(C2CCCCC2)c2sc(C(=O)Nc3ccc(C(=O)NCCO)nc3)cc12 [Example 379, 1-Cyclohexyl-N-(6-{[(2-hydroxyethyl)amino]carbonyl}-3-pyridinyl)-3-methyl-1H-thieno[2,3-c]pyrazole-5-carboxamide] | 13 nM | 1200 nM
20 | Cc1nn(C2CCCCC2)c2sc(C(=O)Nc3ccc(N4CCN(C)CC4)c(F)c3)cc12 [Example 155, 1-Cyclohexyl-N-[3-fluoro-4-(4-methyl-1-piperazinyl)phenyl]-3-methyl-1H-thieno[2,3-c]pyrazole-5-carboxamide methanesulfonic acid salt] | 10 nM | 1500 nM
21 | Cc1nn(C2CCOCC2)c2sc(C(=O)N[C@H]3CC[C@H](N4CCC(CO)CC4)CC3)cc12 [Example 423] | 72 nM | 8100 nM
22 | Cc1nn(C2CCCCC2)c2sc(C(=O)Nc3ccc(CCN4CCOCC4)cc3)cc12 [Example 201, 1-Cyclohexyl-3-methyl-N-{4-[2-(4-morpholinyl)ethyl]phenyl}-1H-thieno[2,3-c]pyrazole-5-carboxamide] | 18 nM | 2200 nM
23 | COCCNC(=O)c1ccc(NC(=O)c2cc3c(C)nn(C4CCCCC4)c3s2)cc1 [Example 37, 1-Cyclohexyl-N-(4-{[(2-methoxyethyl)amino]carbonyl}phenyl)-3-methyl-1H-thieno[2,3-c]pyrazole-5-carboxamide] | 28 nM | 2000 nM
24 | Cc1nn(C2CCCCC2)c2sc(C(=O)NCCN3C(=O)CN(C)C3=O)cc12 [Example 277, 1-Cyclohexyl-3-methyl-N-[2-(3-methyl-2,5-dioxo-1-imidazolidinyl)-ethyl]-1H-thieno[2,3-c]pyrazole-5-carboxamide] | 32 nM | 7800 nM
25 | Cc1nn(C2CCOCC2)c2sc(C(=O)Nc3ccc(N4C(=O)CN(C)C4=O)cc3)cc12 [Example 260, 3-Methyl N-[4-(3-methyl-2,5-dioxo-1-imidazolidinyl)phenyl]-1-tetrahydro-2H-pyran-4-yl-1H-thieno[2,3-c]pyrazole-5-carboxamide] | 37 nM | 4500 nM
26 | CNC(=O)c1ccc(NC(=O)c2cc3c(C)nn(C4CCCCC4)c3s2)cc1OC [Example 152, 1-Cyclohexyl-N-{3-methoxy-4-[(methylamino)carbonyl]phenyl}-3-methyl-1H-thieno[2,3-c]pyrazole-5-carboxamide] | 85 nM | 3000 nM
27 | CC(=O)Nc1ccc(NC(=O)c2cc3c(C)nn(C4CCCCC4)c3s2)cn1 [Example 47, N-[6-(Acetylamino)-3-pyridinyl]-1-cyclohexyl-3-methyl-1H-thieno[2,3-c]pyrazole-5-carboxamide] | 32 nM | 3500 nM
28 | Cc1nn(C2CCCCC2)c2sc(C(=O)Nc3ccc(C4CCN(C)CC4)cc3)cc12 [Example 142, 1-Cyclohexyl-3-methyl-N-[4(1-methyl-4-piperidinyl)phenyl]-1H-thieno[2,3-c]pyrazole-5-carboxamide] | 14 nM | 2000 nM
29 | Cc1nn(C2CCCCC2)c2sc(C(=O)Nc3ccc4c(c3)CCN4S(C)(=O)=O)cc12 [Example 59, 1-Cyclohexyl-3-methyl-N-[1-(methylsulfonyl)-2,3-dihydro-1H-indol-5-yl]-1H-thieno[2,3-c]pyrazole-5-carboxamide] | 80 nM | 7000 nM
30 | CC(=O)N1CCN(Cc2ccc(NC(=O)c3cc4c(C)nn(C5CCCCC5)c4s3)cn2)CC1 [Example 414, N-{6-[(4-Acetyl-1-piperazinyl)methyl]-3-pyridinyl}-1-cyclohexyl-3-methyl-1H-thieno[2,3-c]pyrazole-5-carboxamide] | 35 nM | 2800 nM
31 | Cc1nn(C2CCCCC2)c2sc(C(=O)Nc3ccc(CO)nc3)cc12 [Example 404, 1-Cyclohexyl-N-[6-(hydroxymethyl)-3-pyridinyl]-3-methyl-1H-thieno[2,3-c]pyrazole-5-carboxamide] | 32 nM | 3500 nM
